Reference: ChEMBL document CHEMBL5226287, “Small organic molecules targeting the energy metabolism of Mycobacterium tuberculosis” (Eur J Med Chem, 2021)
Starred links: 1 amine or outer side, 2 acyl side, 3 side chain; linkers in the order of their positions; H or OH if unused. Non-standard residues stand in square brackets, D forms with d. Residues, ends and D or L forms follow the SMILES beside them. ξ: configuration not given here. *: point of attachment. X1 = CCC(=O)C[C@@H](O)C[C@@H](C)C[C@H](N[*:1])C(=O)[*:2]; Alaψ(CH2NMeCH2CH2OH) = C[C@@H](CN(C)CCO)N*; Decanoyl(2R-Me) = CCCCCCCC[C@@H](C)C(=O)*; Ile(3ξ) = CCC(C)[C@H](N)C(=O)O; ξβ3hP = O=C(O)CC1CCCN1; Aib = CC(C)(N)C(=O)O

What was measured:
[1] = Inhibition of Mycobacterium smegmatis cytochrome bd oxidase with ATP synthase overexpression inverted membrane vesicles; type: cell membranes, Mycobacterium tuberculosis, Membrane vesicle
[2] = Inhibition of Mycobacterium bovis BCG cytochrome bd oxidase with ATP synthase overexpression inverted membrane vesicles; type: cell membranes, Mycobacterium tuberculosis variant bovis, Membrane vesicle
[3] = Inhibition of Mycobacterium smegmatis cytochrome bd oxidase with ATP overexpression inverted membrane vesicles; type: cell membranes, Mycobacterium tuberculosis, Membrane vesicle

| Compound | IC50 [1] [µM] | IC50 [2] [µM] | IC50 [3] [µM] |
| --- | --- | --- | --- |
| CCCCCCCC[C@@H](C)C(=O)N1CCCC1CC(=O)N[C@@H](C[C@H](C)C[C@H](O)CC(=O)CC)C(=O)NC(C)(C)C(=O)NC(C)(C)C(=O)N[C@H](C(=O)N[C@H](C(=O)NC(C)(C)C(=O)NC(C)(C)C(=O)N[C@@H](C)CN(C)CCO)C(C)C)C(C)CC (stereo partly drawn) ({Decanoyl(2R-Me)}-[ξβ3hP][X1][Aib][Aib][Ile(3ξ)]V[Aib][Aib]-{Alaψ(CH2NMeCH2CH2OH)}) | 0.5 | 5.2 | – |
| O=C(CNC1CCCC1)N(c1ccccc1)c1ccccc1 | – | – | 14 |
| O=C(CNC1CCCCC1)N(c1ccccc1)c1ccccc1 | – | – | 10.4 |
